Measured values from paper PMC6587507, “Comparison of the metabolism of 10 chemicals in human and pig skin explants” (Journal of Applied Toxicology, 2018).
Like-named read-outs stand apart in the source and are kept apart here. Marks after values point to notes of the source that are not given here. Values belong to the compound of their own block, whether it stands above or below them.

Tests used:
[1] = test system: human abdominal skin explants
Method: (§1) Human abdominal skin was obtained (with consent for research from a commercial supplier [L’Union Clinic, Rangueil hospital and Icelltis, Toulouse, France] with certified ethical procedures) from six male and 34 female healthy donors, 41 ± 11 years of age, undergoing cosmetic surgery. Abdominal skin was kept at 4°C during transports and placed in culture within 3 hours of surgery. Pig ear skin was a waste product of the meat industry (without hot steam treatment) from domestic pigs (female Pietrain breed, 6 months old, 80‐100 kg) obtained from a local slaughterhouse (Montauban, France). Ears were taken from the animals within 5 minutes of slaughter and were kept at 4°C during transport to the laboratory, which lasted a maximum of 2 hours. Pig skin samples were dried and then gently shaved.
(§2) The experiment and the preparation of the culture medium were performed under sterile conditions. Human and pig skin was cut with a dermatome to a thickness of 450 ± 50 μm. Skin punches were seeded dermal side down in polycarbonate Transwell® inserts from Corning Life Sciences (Avon, France; 4.16 cm^2 application area with an 8 μm pore size filter). […] The inserts were placed in a six‐well plate containing 1.5 mL culture medium and the skin explants incubated in a standard incubator at 37°C, under an atmosphere of 5% CO2 and 50 ± 10% relative humidity. The culture medium was Dulbecco's modified Eagle medium without phenol red supplemented with 8 mM L‐glutamine, 2 μg/mL streptomycin/penicillin, 25 ng/mL fungizone and 50 ng/mL gentamycin. Skin explants were incubated for 1 hour before application of the formulation.
(§3) The dosing volume was 10 μL/cm^2. For pig skin metabolism studies, which were carried out before the human skin experiments to ensure the analytics were optimal, 2.4 nmol/cm^2 of each chemical (only the ^14C‐labeled form) was applied on the skin and incubated for 24 hours for the measurement of metabolites in the medium. These tissues were further incubated for a total of 48 hours, with a replacement of the culture medium after 24 hours. This longer incubation time and the standard doses of 2.4 nmol/cm^2 were used to maximize the likelihood of the skin forming metabolites to develop analytical methods. The metabolites profiles in pig and human skin were compared in the medium sample at 24 hours of incubation. The metabolite profiles for the 48‐hour timepoint are not reported here since humans skin metabolism was measured at 24 hours only; however, for completeness, the distribution of radioactivity at the end of both pig (48 hours) and human (24 hours) skin incubations is reported. […] The doses were obtained by mixing radiolabeled and cold chemical. One replicate disc per donor and per dose was used. All chemicals were tested on four donors of pig and human skin, except for 2‐AAF and 4‐amino‐3‐nitrophenol (4‐A‐3‐NP), for which three donors were used. The medium was removed after 24 hours of incubation and stored at −20°C for analysis.
(§4) After centrifugation, a 100 μL aliquot of the extract was counted by liquid scintillation. The pellet was dissolved in 3 mL Soluable (60°C, 24 hours) and then counted by liquid scintillation.
(§5) Analysis of the chemicals and their metabolites in medium after 24 hours of incubation with pig and human skin was measured by radio‐high‐performance liquid chromatography (HPLC) using an HPLC 1100 Series, Agilent and a Flow Scintillation Analyzer, Radiomatic 610 TR, Perkin Elmer (Villebon‐sur‐Yvette, France). […] To confirm that metabolites were the same in pig and human skin, medium samples were co‐injected on the new column. The metabolites were identified by LC‐electrospray ionization‐HRMS (HPLC‐ESI‐HRMS) with a RSLC3000 HPLC system coupled to a LTQ‐Orbitrap XL mass spectrometer (Thermo Scientific). The HPLC analytical conditions for identification and quantification of the metabolites for each chemical are summarized in Supporting information Table S1.

pig ear skin explants [2] = test system: pig ear skin explants
Method: as §1, §2, §3, §4, §5

pig ear skin explants [3] = experiment: Cutaneous distribution and mass balance of radioactivity in pig skin explants; details: pig skin
Method: as §1, §2, §3
(§6) At the end of the experiment, the trans‐wells were dismantled and washed with appropriate solvent for each chemical. […] The cotton swabs were placed in 5 mL of appropriate solvent in a scintillation counting flask and placed in a sonicator bath for 20 minutes. Aliquots of 1 mL were counted by liquid scintillation, after addition of 15 mL of scintillation liquid. Tissue culture inserts were washed with 10 mL of appropriate solvent. One aliquot of 1 mL was counted by liquid scintillation, after addition of 15 mL of scintillation liquid. After media removal, wells were washed twice with 1 mL of the appropriate solvent. Washing solutions were counted by liquid scintillation, after addition of 15 mL of scintillation liquid.
(§7) Pig skin explants were digested using 3 mL Soluable (60°C for 24 hours) and counted by liquid scintillation. Skin extraction process was adapted according to the physicochemical properties of each chemical and its potential metabolites.

[4] = test system: human abdominal skin explants; experiment: Cutaneous distribution and mass balance of radioactivity in human skin explants; details: human skin
Method: as §1, §2, §3, §6, §7

[5] = vanillin applied to human skin, 24 h
[6] = vanillin applied to pig skin, 24 h
[7] = propyl paraben applied to human skin, 24 h
[8] = propyl paraben applied to pig skin, 24 h
[9] = cinnamyl alcohol applied to human skin, 24 h
[10] = cinnamyl alcohol applied to pig skin, 24 h
[11] = end of incubation (48 h), mean ± SD
[12] = end of incubation (24 h), mean ± SD

Structure (SMILES): O=C(O)c1ccc(O)cc1 [X (4‐HBA), 4‐hydroxybenzoic acid]
Amount of metabolite in the medium after 24 h [1, 7]: 42.09 ± 2.8 % Applied dose | Amount of metabolite in the medium after 24 h (pig ear skin explants [2]; [8]): 9.5 ± 0.6 % Applied dose | Amount of metabolite in the medium after 24 h (pig ear skin explants [2]; propyl paraben applied to pig skin, 24 h, listed as 4‐hydroxybenzoic acid): 9.5 % Applied dose

Structure (SMILES): O=C(O)/C=C\C(=O)O [II (maleic acid), maleic acid]
Amount of metabolite in the medium after 24 h [1, 7]: 0.5 ± 0.03 % Applied dose | Amount of metabolite in the medium after 24 h (pig ear skin explants [2]; [8]): 5.6 ± 0.3 % Applied dose

Structure (SMILES): O=C(O)c1ccccc1 [B (benzoic acid), benzoic acid]
Amount of metabolite in the medium after 24 h [1, 9]: 0.0 ^* % Applied dose | Amount of metabolite in the medium after 24 h (pig ear skin explants [2]; [10]): 4.8 ± 1.0 % Applied dose | Metabolite as share of the total metabolites (pig ear skin explants [2]; cinnamyl alcohol applied to pig skin, medium 24 h): 8 % of the total metabolites

Structure (SMILES): O=C(O)CNC(=O)c1ccccc1 [V (benzoic acid‐glycine conjugate), benzoylglycine]
Amount of metabolite in the medium after 24 h [1, 9]: 1.3 ± 0.1 % Applied dose | Amount of metabolite in the medium after 24 h (pig ear skin explants [2]; [10]): 4.4 ± 1.1 % Applied dose

Structure (SMILES): O=Cc1ccc(O)c(O)c1 [IV (Protocatechuic aldehyde), protocatechuic aldehyde]
Amount of metabolite in the medium after 24 h [1, 5]: 2.4 ± 1.1 % Applied dose | Amount of metabolite in the medium after 24 h (pig ear skin explants [2]; [6]): 20.7 ± 1.0 % Applied dose | Amount of metabolite in the medium after 24 h (pig ear skin explants [2]; vanillin applied to pig skin, 24 h, listed as protocatechuic aldehyde): 21 % Applied dose

Structure (SMILES): O=C(O[C@@H]1O[C@H](C(=O)O)[C@@H](O)[C@H](O)[C@H]1O)c1ccccc1 [II (benzoic acid glucuronide), benzoic acid glucuronide]
Amount of metabolite in the medium after 24 h [1]: 4.6 ± 0.4 % Applied dose | Amount of metabolite in the medium after 24 h (pig ear skin explants [2]): 0.5 ± 0.04 % Applied dose

Structure (SMILES): Cn1c(=O)c2c(ncn2C)n(C)c1=O [Caffeine]
% Radioactivity in culture media after 24 h (pig ear skin explants [3]; 24 h, 2.4 nmol/cm^2): 72.0 ± 4.0% | Mass balance (% of applied dose at end of incubation) (pig ear skin explants [3]; 48 h, 2.4 nmol/cm^2): 109.2 ± 3.3 % of applied dose | Skin radioactivity (pig ear skin explants [3]; [11]): 8.4 ± 0.4 % of the applied dose | Skin surface radioactivity (pig ear skin explants [3]; [11]): 8.8 ± 10.6 % of the applied dose | % Radioactivity in culture media after 24 h ([4]; 24 h): 81.4 ± 3.3% | Mass balance (% of applied dose at end of incubation) ([4]; 24 h): 104.0 ± 0.7 % of applied dose | Medium radioactivity [4, 12]: 81.4 ± 3.3 % of the applied dose | Skin radioactivity [4, 12]: 21.8 ± 2.5 % of the applied dose | Skin surface radioactivity [4, 12]: 0.8 ± 0.8 % of the applied dose

Further lines, results first:

Amount of metabolite in the medium after 24 h [1]: 0.9 ± 0.6 % Applied dose | Amount of metabolite in the medium after 24 h (pig ear skin explants [2]): 2.6 ± 0.9 % Applied dose
Structure (SMILES): O=c1ccc2ccc(OS(=O)(=O)[O-])cc2o1.[K+] [HC‐sulfate]

Amount of metabolite in the medium after 24 h [1]: 8.2 ± 0.1 % Applied dose | Amount of metabolite in the medium after 24 h (pig ear skin explants [2]): 0.5 ± 0.03 % Applied dose
Structure (SMILES): O=S(=O)(O)Oc1cccc(O)c1 [R‐sulfate]

Amount of metabolite in the medium after 24 h [1, 5]: 33.5 ± 4.0 % Applied dose | Amount of metabolite in the medium after 24 h ([1]; vanillin applied to human skin, 24 h, listed as vanillic acid): 34 % Applied dose | Amount of metabolite in the medium after 24 h (pig ear skin explants [2]; [6]): 5.8 ± 0.1 % Applied dose
Structure (SMILES): COc1cc(C(=O)O)ccc1O [V (vanillic acid), vanillic acid]

Amount of metabolite in the medium after 24 h [1]: 35.0 ± 2.4 % Applied dose | Amount of metabolite in the medium after 24 h (pig ear skin explants [2]): 45.5 ± 0.2 % Applied dose
Structure (SMILES): Nc1ccc(OC2OC(C(=O)O)C(O)C(O)C2O)cc1[N+](=O)[O-] (stereo not shown) [4‐A‐3‐NP‐glucuronide]

Amount of metabolite in the medium after 24 h [1]: 9.98 ± 2.7 % Applied dose | Amount of metabolite in the medium after 24 h (pig ear skin explants [2]): 1.8 ± 0.3 % Applied dose
Structure (SMILES): Nc1ccc(OS(=O)(=O)O)cc1[N+](=O)[O-] [4‐A‐3‐NP‐sulfate]

Amount of metabolite in the medium after 24 h (pig ear skin explants [2]): 2.9 ± 0.8 % Applied dose
Structure (SMILES): COc1cc(C=O)ccc1O[C@@H]1O[C@H](C(=O)O)[C@@H](O)[C@H](O)[C@H]1O [III (vanillin glucuronide), vanillin glucuronide]

Amount of metabolite in the medium after 24 h [1]: 2.2 ± 1.2 % Applied dose | Amount of metabolite in the medium after 24 h (pig ear skin explants [2]): 4.9 ± 0.9 % Applied dose
Structure (SMILES): O=C(O)[C@H]1O[C@@H](Oc2ccc3ccc(=O)oc3c2)[C@H](O)[C@@H](O)[C@@H]1O [HC‐glucuronide]

Amount of metabolite in the medium after 24 h [1]: 33.7 ± 0.6 % Applied dose | Amount of metabolite in the medium after 24 h (pig ear skin explants [2]): 48.6 ± 0.8 % Applied dose
Structure (SMILES): O=C(O)C1OC(Oc2cccc(O)c2)C(O)C(O)C1O (stereo not shown) [R‐glucuronide]
